# Columns and labels:
# [1] = biological target: T1, full-length MALT1 protein (Strep-MALT1(1-824)-His) (Homo sapiens, UniProt Q9UDY8); assay: biochemical;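 also: fluorogenic LRSR-AMC substrate cleavage by MALT1, 50 min compound preincubation then 4 h reaction at RT, 11-point dilution from 30 µM, scaled between enzyme-free and untreated enzyme controls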
# T1 sequence (Q9UDY8 1-824): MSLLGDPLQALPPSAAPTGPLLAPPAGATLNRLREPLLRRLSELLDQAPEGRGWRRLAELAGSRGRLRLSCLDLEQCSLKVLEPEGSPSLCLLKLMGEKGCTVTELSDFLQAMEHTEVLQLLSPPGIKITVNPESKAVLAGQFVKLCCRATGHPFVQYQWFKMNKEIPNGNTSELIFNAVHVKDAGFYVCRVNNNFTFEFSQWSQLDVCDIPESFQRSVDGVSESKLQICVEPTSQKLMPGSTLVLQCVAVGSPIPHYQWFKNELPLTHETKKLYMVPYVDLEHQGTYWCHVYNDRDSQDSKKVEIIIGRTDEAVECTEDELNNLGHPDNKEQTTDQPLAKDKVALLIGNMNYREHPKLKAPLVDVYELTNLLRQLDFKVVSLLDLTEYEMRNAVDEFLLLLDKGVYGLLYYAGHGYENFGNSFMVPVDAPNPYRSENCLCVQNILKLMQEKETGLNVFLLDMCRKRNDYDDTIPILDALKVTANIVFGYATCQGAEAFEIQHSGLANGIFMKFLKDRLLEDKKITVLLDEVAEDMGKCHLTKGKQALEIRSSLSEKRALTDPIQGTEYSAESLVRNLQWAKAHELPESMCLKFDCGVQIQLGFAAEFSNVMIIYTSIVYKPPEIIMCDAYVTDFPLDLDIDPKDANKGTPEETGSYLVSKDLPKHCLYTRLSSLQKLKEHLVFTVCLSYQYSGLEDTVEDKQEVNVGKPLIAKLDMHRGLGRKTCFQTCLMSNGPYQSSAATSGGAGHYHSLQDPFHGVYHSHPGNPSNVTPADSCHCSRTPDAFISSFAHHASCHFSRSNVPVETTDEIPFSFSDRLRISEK
# [2] = tested on: Secretion of IL10 by OCI-LY3 ABC-DLBCL cells; assay: Human IL10 Mesoscale assay (OCI-LY3); assay type: cell-based; conditions: OCI-LY3 cells, 24 h incubation, supernatant, MSD V-Plex, read-out: Human IL10 Mesoscale assay (OCI-LY3)
# Protocol: (§1) NFKB signaling regulates the secretion of multiple cytokines, including IL6 and IL10. Secretion of the cytokines IL6 and IL10 by TMD8 or OCI-LY3 ABC-DLBCL cells was measured using a mesoscale assay.
# (§2) Cell passage number should not exceed 30. Cells should be kept between 0.5-2.5 million cells per mL during culturing and cells should be supplemented every 2-3 days with fresh 50 µM beta-mercaptoenthanol. No beta-mercaptoethanol was used during the mesoscale assay.
# (§3) DMSO control wells were used to determine the maximum signal (High Control (HC)). […] Compounds and cells were incubated for 24 h at 37° C. and 5% CO2 (assay volume is 150 μL). After 24 h of incubation 50 μL of the supernatant was transferred to a MSD plate (V-Plex Proinflammation Panel 1 (human) kit, Mesoscale (MSD)) and incubated for 2 h with vigorous shaking (600 rpm) at room temperature. Following incubation, plates were washed 3× with PBS+0.05% Tween-20 and 25 μL detection antibody solution (IL6 & IL10 antibodies in diluent 3 (MSD)) was added per well followed by 2 h of incubation with vigorous shaking (600 rpm) at room temperature. After 3× washes with PBS+0.05% Tween-20, plates were incubated with 150 μL 2× Read Buffer T and read on SECTOR imager.
# [3] = tested on: Secretion of IL6 by OCI-LY3 ABC-DLBCL cells; assay: Human IL6 Mesoscale assay (OCI-LY3); assay type: cell-based; conditions: OCI-LY3 cells, 24 h incubation, supernatant, MSD V-Plex, read-out: Human IL6 Mesoscale assay (OCI-LY3)
# Protocol: as §1, §2, §3
Compound,IC50 [1],IC50 [2],IC50 [3]
"Cc1cc(C#N)ccc1-n1ncc(C(=O)Nc2cnc(-n3nccn3)c(Cl)c2)c1C(F)(F)F [Cpd 37, N-(5-chloro-6-(2H-1,2,3-triazol-2-yl)pyridin-3-yl)-1-(4-cyano-2-methylphenyl)-5-(trifluoromethyl)-1H-pyrazole-4-carboxamide]",63 nM,63 nM,95 nM
"O=C(Nc1cnc(-n2nccn2)c(Cl)c1)c1cnn(-c2ccc(F)c(F)c2Cl)c1C(F)(F)F [Cpd 73, 1-(2-chloro-3,4-difluorophenyl)-N-(5-chloro-6-(2H-1,2,3-triazol-2-yl)pyridin-3-yl)-5-(trifluoromethyl)-1H-pyrazole-4-carboxamide]",234 nM,110 nM,138 nM
"Cc1c(-n2ncc(C(=O)Nc3cnc(-n4nccn4)c(Cl)c3)c2C(F)(F)F)ccc(F)c1F [Cpd 174, N-(5-chloro-6-(2H-1,2,3-triazol-2-yl)pyridin-3-yl)-1-(3,4-difluoro-2-methylphenyl)-5-(trifluoromethyl)-1H-pyrazole-4-carboxamide]",170 nM,83 nM,
"Cc1nc(-n2nccn2)c(Cl)cc1NC(=O)c1cnn(-c2ccc(C#N)c(N)n2)c1C(F)(F)F [Cpd 178, 1-(6-amino-5-cyanopyridin-2-yl)-N-(5-chloro-2-methyl-6-(2H-1,2,3-triazol-2-yl)pyridin-3-yl)-5-(trifluoromethyl)-1H-pyrazole-4-carboxamide]",200 nM,,
"Cc1ccc(-n2ncc(C(=O)Nc3cnc(-n4nccn4)c(Cl)c3)c2C(F)(F)F)nc1N [Cpd 184, 1-(6-amino-5-methylpyridin-2-yl)-N-(5-chloro-6-(2H-1,2,3-triazol-2-yl)pyridin-3-yl)-5-(trifluoromethyl)-1H-pyrazole-4-carboxamide]",331 nM,,
"Cc1cc(F)c(N)nc1-n1ncc(C(=O)Nc2cc(C#N)c(-n3nccn3)nc2C)c1C(F)(F)F [Cpd 186, 1-(6-amino-5-fluoro-3-methylpyridin-2-yl)-N-(5-cyano-2-methyl-6-(2H-1,2,3-triazol-2-yl)pyridin-3-yl)-5-(trifluoromethyl)-1H-pyrazole-4-carboxamide]",339 nM,,
"N#Cc1cc(NC(=O)c2cnn(-c3nc(N)ccc3C(F)(F)F)c2C(F)(F)F)cnc1-n1nccn1 [Cpd 187, 1-(6-amino-3-(trifluoromethyl)pyridin-2-yl)-N-(5-cyano-6-(2H-1,2,3-triazol-2-yl)pyridin-3-yl)-5-(trifluoromethyl)-1H-pyrazole-4-carboxamide]",380 nM,,
"Cc1cc(F)c(N)nc1-n1ncc(C(=O)Nc2cc(Cl)c(-n3nccn3)nc2C)c1C(F)(F)F [Cpd 188, 1-(6-amino-5-fluoro-3-methylpyridin-2-yl)-N-(5-chloro-2-methyl-6-(2H-1,2,3-triazol-2-yl)pyridin-3-yl)-5-(trifluoromethyl)-1H-pyrazole-4-carboxamide]",380 nM,,
"CNc1cccc(-n2ncc(C(=O)Nc3cnc(-n4nccn4)c(C#N)c3)c2C(F)(F)F)n1 [Cpd 189, N-(5-cyano-6-(2H-1,2,3-triazol-2-yl)pyridin-3-yl)-1-(6-(methylamino)pyridin-2-yl)-5-(trifluoromethyl)-1H-pyrazole-4-carboxamide]",437 nM,,
"Cc1cc(N)ncc1-n1ncc(C(=O)Nc2cnc(-n3nccn3)c(C#N)c2)c1C(F)(F)F [Cpd 190, 1-(6-amino-4-methylpyridin-3-yl)-N-(5-cyano-6-(2H-1,2,3-triazol-2-yl)pyridin-3-yl)-5-(trifluoromethyl)-1H-pyrazole-4-carboxamide]",447 nM,,
"Cc1cc(N)ncc1-n1ncc(C(=O)Nc2cnc(-n3nccn3)c(Cl)c2)c1C(F)(F)F [Cpd 191, 1-(6-amino-4-methylpyridin-3-yl)-N-(5-chloro-6-(2H-1,2,3-triazol-2-yl)pyridin-3-yl)-5-(trifluoromethyl)-1H-pyrazole-4-carboxamide]",724 nM,,
"Nc1ccc(C(F)(F)F)c(-n2ncc(C(=O)Nc3cnc(-n4nccn4)c(Cl)c3)c2C(F)(F)F)n1 [Cpd 192, 1-(6-amino-3-(trifluoromethyl)pyridin-2-yl)-N-(5-chloro-6-(2H-1,2,3-triazol-2-yl)pyridin-3-yl)-5-(trifluoromethyl)-1H-pyrazole-4-carboxamide]",1120 nM,,
"N#Cc1cc(NC(=O)c2cnn(-c3ccc(N)nc3)c2C(F)(F)F)cnc1-n1nccn1 [Cpd 194, 1-(6-aminopyridin-3-yl)-N-(5-cyano-6-(2H-1,2,3-triazol-2-yl)pyridin-3-yl)-5-(trifluoromethyl)-1H-pyrazole-4-carboxamide]",1170 nM,,
"Cc1nc(N)ccc1-n1ncc(C(=O)Nc2cnc(-n3nccn3)c(C#N)c2)c1C(F)(F)F [Cpd 196, 1-(6-amino-2-methylpyridin-3-yl)-N-(5-cyano-6-(2H-1,2,3-triazol-2-yl)pyridin-3-yl)-5-(trifluoromethyl)-1H-pyrazole-4-carboxamide]",1320 nM,,
"Cc1ccc(-n2ncc(C(=O)Nc3cc(C#N)c(-n4nccn4)nc3C)c2C(F)(F)F)nc1N [Cpd 197, 1-(6-amino-5-methylpyridin-2-yl)-N-(5-cyano-2-methyl-6-(2H-1,2,3-triazol-2-yl)pyridin-3-yl)-5-(trifluoromethyl)-1H-pyrazole-4-carboxamide]",2510 nM,,
"Cc1nc(-n2nccn2)c(Cl)cc1NC(=O)c1cnn(-c2ccc(C(N)=O)c(N)n2)c1C(F)(F)F [Cpd 198, 2-amino-6-(4-((5-chloro-2-methyl-6-(2H-1,2,3-triazol-2-yl)pyridin-3-yl)carbamoyl)-5-(trifluoromethyl)-1H-pyrazol-1-yl)nicotinamide]",3720 nM,,
"Cc1c(-n2ncc(C(=O)Nc3cnc(-n4nccn4)c(Cl)c3)c2C(F)(F)F)ccnc1N [Cpd 199, 1-(2-amino-3-methylpyridin-4-yl)-N-(5-chloro-6-(2H-1,2,3-triazol-2-yl)pyridin-3-yl)-5-(trifluoromethyl)-1H-pyrazole-4-carboxamide]",174 nM,,
"Cc1nc(C#N)ccc1-n1ncc(C(=O)Nc2cnc(-n3nccn3)c(Cl)c2)c1C(F)(F)F [Cpd 201, N-(5-chloro-6-(2H-1,2,3-triazol-2-yl)pyridin-3-yl)-1-(6-cyano-2-methylpyridin-3-yl)-5-(trifluoromethyl)-1H-pyrazole-4-carboxamide]",138 nM,,
"O=C(Nc1cnc(-n2nccn2)c(Cl)c1)c1cnn(-c2cccc(Br)n2)c1C(F)(F)F [Cpd 202, 1-(6-bromopyridin-2-yl)-N-(5-chloro-6-(2H-1,2,3-triazol-2-yl)pyridin-3-yl)-5-(trifluoromethyl)-1H-pyrazole-4-carboxamide]",741 nM,,
"O=C(Nc1cnc(-n2nccn2)c(Cl)c1)c1cnn(-c2cccc(-c3ccco3)n2)c1C(F)(F)F [Cpd 207, N-(5-chloro-6-(2H-1,2,3-triazol-2-yl)pyridin-3-yl)-1-(6-(furan-2-yl)pyridin-2-yl)-5-(trifluoromethyl)-1H-pyrazole-4-carboxamide]",5620 nM,,
"O=C(Nc1cnc(-n2nccn2)c(Cl)c1)c1cnn(-c2cccc(C3=COCCO3)n2)c1C(F)(F)F [Cpd 208, N-(5-chloro-6-(2H-1,2,3-triazol-2-yl)pyridin-3-yl)-1-(6-(5,6-dihydro-1,4-dioxin-2-yl)pyridin-2-yl)-5-(trifluoromethyl)-1H-pyrazole-4-carboxamide]",5130 nM,,

# — US11040031B2, “Pyrazole derivatives as MALT1 inhibitors” (Janssen Pharmaceutica NV, priority 2018, dated 2021)
